Values joined by “and” are separate entries in the source; they are usually repeats but may differ in a detail not shown here. Identical values can stand only once. Like-named read-outs stand apart in the source and are kept apart here.
Test: Pharmacokinetics in CD-1 mice (plasma concentrations, PK parameters)
Type: in vivo
Settings: for concentration at 5 min / concentration at 0.5 h / concentration at 1 h / concentration at 2 h / concentration at 4 h / concentration at 24 h / concentration at 6 h: read-out: Concentration; for AUC(0-inf): read-out: AUCInf; for AUC(0-t): read-out: AUClast; for MRT inf: read-out: MRTInf_obs
Protocol: Pharmacokinetics for I-127, I-172 and I-210 were determined in Sprague Dawley rats or CD-1 mice by dosing intravenous (IV), subcutaneous (SC) or per oral (PO) using facility SOPs and sampling plasma at required time points. Species, formulation, route of administration and time points samples are listed below for each compound.
Compounds were extracted from plasma, injected on reverse phase HPLC, eluted with a gradient from 5% to 95% acetonitrile in water and quantified by mass spectrometry with internal standard. Data are expressed in ng compound per mL of plasma.

[1] = CD-1, mouse, plasma, iv, 2 mg/kg, mouse (CD1) iv 2 mg/kg, Mean
[2] = CD-1, mouse, plasma, iv, 2 mg/kg, mouse (CD1) iv 2 mg/kg, individual Mouse 1-3
[3] = CD-1, mouse, plasma, sc, 30 mg/kg, mouse (CD1) sc 30 mg/kg, Mean
[4] = CD-1, mouse, plasma, sc, 30 mg/kg, mouse (CD1) sc 30 mg/kg, individual Mouse 7-9
[5] = mouse (CD1) iv 2 mg/kg, individual Mouse 1-3, 2 mg/kg
[6] = mouse (CD1) sc 30 mg/kg, individual Mouse 7-9, 30 mg/kg

NC(=O)c1nn(-c2ccc(C(=O)NCCCCCNCCNc3cccc4c3C(=O)N(C3CCC(=O)NC3=O)C4=O)cc2)cc1NC(=O)c1coc(-c2ccnc(NCC(F)(F)F)c2)n1 (stereo not shown) [I-172, N-[3-carbamoyl-1-[4-[5-[2-[[2-(2,6-dioxo-3-piperidyl)-1,3-dioxo-isoindolin-4-yl]amino]ethylamino]pentylcarbamoyl]phenyl]pyrazol-4-yl]-2-[2-(2,2,2-trifluoroethylamino)-4-pyridyl]oxazole-4-carboxamide]
concentration at 5 min (CD-1, mouse, plasma, iv, 2 mg/kg, mouse (CD1) iv 2 mg/kg, 5 min, Mean): 3420 ng/mL
concentration at 5 min (CD-1, mouse, plasma, iv, 2 mg/kg, mouse (CD1) iv 2 mg/kg, 5 min, individual Mouse 1-3): 4150 ng/mL
concentration at 0.25 h (CD-1, mouse, plasma, iv, 2 mg/kg, mouse (CD1) iv 2 mg/kg, 0.25 h, Mean): 387 ng/mL
concentration at 0.25 h (CD-1, mouse, plasma, iv, 2 mg/kg, mouse (CD1) iv 2 mg/kg, 0.25 h, individual Mouse 1-3): 444 ng/mL
concentration at 0.5 h (CD-1, mouse, plasma, iv, 2 mg/kg, mouse (CD1) iv 2 mg/kg, 0.5 h, Mean): 123 ng/mL
concentration at 0.5 h (CD-1, mouse, plasma, iv, 2 mg/kg, mouse (CD1) iv 2 mg/kg, 0.5 h, individual Mouse 1-3): 130 ng/mL
concentration at 1 h (CD-1, mouse, plasma, iv, 2 mg/kg, mouse (CD1) iv 2 mg/kg, 1 h, Mean): 34.7 ng/mL
concentration at 1 h (CD-1, mouse, plasma, iv, 2 mg/kg, mouse (CD1) iv 2 mg/kg, 1 h, individual Mouse 1-3): 34.3 ng/mL
concentration at 2 h (CD-1, mouse, plasma, iv, 2 mg/kg, mouse (CD1) iv 2 mg/kg, 2 h, Mean): 12.6 ng/mL
concentration at 2 h (CD-1, mouse, plasma, iv, 2 mg/kg, mouse (CD1) iv 2 mg/kg, 2 h, individual Mouse 1-3): 11.5 ng/mL
concentration at 4 h (CD-1, mouse, plasma, iv, 2 mg/kg, mouse (CD1) iv 2 mg/kg, 4 h, Mean): 7.77 ng/mL
concentration at 4 h (CD-1, mouse, plasma, iv, 2 mg/kg, mouse (CD1) iv 2 mg/kg, 4 h, individual Mouse 1-3): 9.04 ng/mL
concentration at 8 h (CD-1, mouse, plasma, iv, 2 mg/kg, mouse (CD1) iv 2 mg/kg, 8 h, Mean): 2.46 ng/mL
concentration at 8 h (CD-1, mouse, plasma, iv, 2 mg/kg, mouse (CD1) iv 2 mg/kg, 8 h, individual Mouse 1-3): 2.62 ng/mL
concentration at 24 h (CD-1, mouse, plasma, iv, 2 mg/kg, mouse (CD1) iv 2 mg/kg, 24 h, individual Mouse 1-3): 2.55 ng/mL
half-life [1]: 2.53 h
AUC(0-inf) [1]: 1070 ng·h/mL
AUC(0-t) [1]: 1060 ng·h/mL
C0 (CD-1, mouse, plasma, iv, 2 mg/kg, mouse (CD1) iv 2 mg/kg, Mean, read-out: C0): 10200 ng/mL
MRT inf [1]: 0.61 h
half-life [2]: 2.71 h
AUC(0-inf) [2]: 1270 ng·h/mL
AUC(0-t) [2]: 1260 ng·h/mL
C0 (CD-1, mouse, plasma, iv, 2 mg/kg, mouse (CD1) iv 2 mg/kg, individual Mouse 1-3, read-out: C0): 12700 ng/mL
concentration at 0.25 h (CD-1, mouse, plasma, sc, 30 mg/kg, mouse (CD1) sc 30 mg/kg, 0.25 h, Mean): 43.1 ng/mL
concentration at 0.25 h (CD-1, mouse, plasma, sc, 30 mg/kg, mouse (CD1) sc 30 mg/kg, 0.25 h, individual Mouse 7-9): 34.6 ng/mL
concentration at 0.5 h (CD-1, mouse, plasma, sc, 30 mg/kg, mouse (CD1) sc 30 mg/kg, 0.5 h, Mean): 64.8 ng/mL
concentration at 0.5 h (CD-1, mouse, plasma, sc, 30 mg/kg, mouse (CD1) sc 30 mg/kg, 0.5 h, individual Mouse 7-9): 71.9 ng/mL
concentration at 1 h (CD-1, mouse, plasma, sc, 30 mg/kg, mouse (CD1) sc 30 mg/kg, 1 h, Mean): 64.8 ng/mL
concentration at 1 h (CD-1, mouse, plasma, sc, 30 mg/kg, mouse (CD1) sc 30 mg/kg, 1 h, individual Mouse 7-9): 52.6 ng/mL
concentration at 2 h (CD-1, mouse, plasma, sc, 30 mg/kg, mouse (CD1) sc 30 mg/kg, 2 h, Mean): 50.8 ng/mL
concentration at 2 h (CD-1, mouse, plasma, sc, 30 mg/kg, mouse (CD1) sc 30 mg/kg, 2 h, individual Mouse 7-9): 48 ng/mL
concentration at 4 h (CD-1, mouse, plasma, sc, 30 mg/kg, mouse (CD1) sc 30 mg/kg, 4 h, Mean): 37.3 ng/mL
concentration at 4 h (CD-1, mouse, plasma, sc, 30 mg/kg, mouse (CD1) sc 30 mg/kg, 4 h, individual Mouse 7-9): 33.3 ng/mL
concentration at 6 h (CD-1, mouse, plasma, sc, 30 mg/kg, mouse (CD1) sc 30 mg/kg, 6 h, Mean): 19.4 ng/mL
concentration at 6 h (CD-1, mouse, plasma, sc, 30 mg/kg, mouse (CD1) sc 30 mg/kg, 6 h, individual Mouse 7-9): 16 ng/mL
concentration at 24 h (CD-1, mouse, plasma, sc, 30 mg/kg, mouse (CD1) sc 30 mg/kg, 24 h, Mean): 5.33 ng/mL
concentration at 24 h (CD-1, mouse, plasma, sc, 30 mg/kg, mouse (CD1) sc 30 mg/kg, 24 h, individual Mouse 7-9): 5.4 ng/mL
half-life [3]: 8 h
AUC(0-inf) [3]: 538 ng·h/mL
AUC(0-t) [3]: 476 ng·h/mL
Cmax (CD-1, mouse, plasma, sc, 30 mg/kg, mouse (CD1) sc 30 mg/kg, Mean, read-out: Cmax): 71.2 ng/mL
MRT inf [3]: 9.4 h
Tmax (CD-1, mouse, plasma, sc, 30 mg/kg, mouse (CD1) sc 30 mg/kg, Mean, read-out: Tmax): 0.833 h
half-life [4]: 8.79 h
AUC(0-inf) [4]: 491 ng·h/mL
AUC(0-t) [4]: 422 ng·h/mL
Cmax (CD-1, mouse, plasma, sc, 30 mg/kg, mouse (CD1) sc 30 mg/kg, individual Mouse 7-9, read-out: Cmax): 71.9 ng/mL
MRT inf [4]: 10.4 h
Tmax (CD-1, mouse, plasma, sc, 30 mg/kg, mouse (CD1) sc 30 mg/kg, individual Mouse 7-9, read-out: Tmax): 0.5 h
Concentration (mouse (CD1) iv 2 mg/kg, 5 min, individual Mouse 1-3, 2 mg/kg): 2810 ng/mL and 3290 ng/mL
Concentration (mouse (CD1) iv 2 mg/kg, 0.25 h, individual Mouse 1-3, 2 mg/kg): 314 ng/mL and 404 ng/mL
Concentration (mouse (CD1) iv 2 mg/kg, 0.5 h, individual Mouse 1-3, 2 mg/kg): 102 ng/mL and 136 ng/mL
Concentration (mouse (CD1) iv 2 mg/kg, 1 h, individual Mouse 1-3, 2 mg/kg): 31.5 ng/mL and 38.2 ng/mL
Concentration (mouse (CD1) iv 2 mg/kg, 2 h, individual Mouse 1-3, 2 mg/kg): 11.7 ng/mL and 14.6 ng/mL
Concentration (mouse (CD1) iv 2 mg/kg, 4 h, individual Mouse 1-3, 2 mg/kg): 6.56 ng/mL and 7.70 ng/mL
Concentration (mouse (CD1) iv 2 mg/kg, 8 h, individual Mouse 1-3, 2 mg/kg): 2.07 ng/mL and 2.69 ng/mL
Concentration (mouse (CD1) iv 2 mg/kg, 24 h, individual Mouse 1-3, 2 mg/kg): BLOQ
AUC_%Extrap_obs (mouse (CD1) iv 2 mg/kg, Mean): 0.826%
AUClast/D (mouse (CD1) iv 2 mg/kg, Mean): 532 h·ng/mL per mg/kg
Cl_obs (mouse (CD1) iv 2 mg/kg, Mean): 31.8 mL/min/kg
Vss_obs (mouse (CD1) iv 2 mg/kg, Mean): 1.15 L/kg
AUCInf [5]: 877 ng·h/mL and 1067 ng·h/mL
AUC_%Extrap_obs [5]: 0.805% and 0.818% and 0.856%
AUClast [5]: 870 ng·h/mL and 1058 ng·h/mL
AUClast/D [5]: 632 h·ng/mL per mg/kg and 435 h·ng/mL per mg/kg and 529 h·ng/mL per mg/kg
C0 [5]: 8401 ng/mL and 9383 ng/mL
Cl_obs [5]: 26.2 mL/min/kg and 38.0 mL/min/kg and 31.2 mL/min/kg
MRTInf_obs [5]: 0.332 h and 0.362 h and 1.13 h
T1/2 [5]: 2.40 h and 2.48 h
Vss_obs [5]: 0.522 L/kg and 0.826 L/kg and 2.11 L/kg
Concentration (mouse (CD1) po 30 mg/kg, 0.25 h, individual Mouse 4-6): BLOQ
Concentration (mouse (CD1) po 30 mg/kg, 0.5 h, individual Mouse 4-6): BLOQ
Concentration (mouse (CD1) po 30 mg/kg, 1 h, individual Mouse 4-6): BLOQ
Concentration (mouse (CD1) po 30 mg/kg, 2 h, individual Mouse 4-6): BLOQ
Concentration (mouse (CD1) po 30 mg/kg, 4 h, individual Mouse 4-6): BLOQ
Concentration (mouse (CD1) po 30 mg/kg, 8 h, individual Mouse 4-6): BLOQ
Concentration (mouse (CD1) po 30 mg/kg, 24 h, individual Mouse 4-6): BLOQ
Concentration (mouse (CD1) sc 30 mg/kg, 0.25 h, individual Mouse 7-9, 30 mg/kg): 40.0 ng/mL and 54.6 ng/mL
Concentration (mouse (CD1) sc 30 mg/kg, 0.5 h, individual Mouse 7-9, 30 mg/kg): 57.6 ng/mL and 64.8 ng/mL
Concentration (mouse (CD1) sc 30 mg/kg, 1 h, individual Mouse 7-9, 30 mg/kg): 63.0 ng/mL and 78.7 ng/mL
Concentration (mouse (CD1) sc 30 mg/kg, 2 h, individual Mouse 7-9, 30 mg/kg): 46.5 ng/mL and 58.0 ng/mL
Concentration (mouse (CD1) sc 30 mg/kg, 4 h, individual Mouse 7-9, 30 mg/kg): 37.0 ng/mL and 41.6 ng/mL
Concentration (mouse (CD1) sc 30 mg/kg, 6 h, individual Mouse 7-9, 30 mg/kg): 20.7 ng/mL and 21.5 ng/mL
Concentration (mouse (CD1) sc 30 mg/kg, 24 h, individual Mouse 7-9, 30 mg/kg): 4.74 ng/mL and 5.85 ng/mL
AUC_%Extrap_obs (mouse (CD1) sc 30 mg/kg, Mean): 11.5%
AUClast/D (mouse (CD1) sc 30 mg/kg, Mean): 15.9 h·ng/mL per mg/kg
F (mouse (CD1) sc 30 mg/kg, Mean): 3.34%
AUCInf [6]: 522 ng·h/mL and 601 ng·h/mL
AUC_%Extrap_obs [6]: 14.0% and 9.60% and 11.1%
AUClast [6]: 472 ng·h/mL and 535 ng·h/mL
AUClast/D [6]: 14.1 h·ng/mL per mg/kg and 15.7 h·ng/mL per mg/kg and 17.8 h·ng/mL per mg/kg
Cmax [6]: 63.0 ng/mL and 78.7 ng/mL
F [6]: 3.05% and 3.25% and 3.74%
MRTInf_obs [6]: 8.61 h and 9.13 h
T1/2 [6]: 7.34 h and 7.89 h
Tmax [6]: 1 h
